Patent publication US12600727B2, “Treatment of infections of toxoplasma gondii and closely related parasites” (WASHINGTON UNIVERSITY, priority 2018, dated 2026)
Read-outs that look alike come from different tables or passages of the source.

Experiments:
[1] = system: Toxoplasma gondii tachyzoites (ME49-FLUC, type 2); assay: T. gondii ME49-FLUC tachyzoite growth inhibition in HFF, luciferase assay; type: cell-based; settings: T. gondii ME49-FLUC (type 2) tachyzoites in HFF
Method: Toxoplasma gondii tachyzoites (ME49-FLUC, type 2) (27) were serially passaged in human foreskin fibroblasts (HFF) cultured in complete DMEM medium (DMEM supplemented with 10% fetal bovine serum (FBS), glutamine (10 mM) and gentamycin (10 μg/mL)). For each assay described, infected monolayers were scraped, needle passed (23 ga), and parasites were separated from host cell debris using a three (3) micron pore polycarbonate filter. HeLa cells were cultured in MEM media that contained 10% FBS, 4 mM L-glutamine and 10 mM HEPES solution. Cell culture and assays were conducted using a 37° C. incubator with 5% CO2. Cell cultures were negative for mycoplasma, as determined using the e-Myco plus kit (Intron Biotechnology).
White, clear bottom 96-well assay plates were set up as described above with the following modifications. Only the inner 60 wells were used for the assay in order to reduce variability that results from evaporation during incubation. Dilution of compound stock is as described above, with all wells containing a final concentration of 0.1% DMSO. DMSO (vehicle control) and pyrimethamine (2.5 μM, positive control) were included in the outside wells of all plates as controls. Liquid handling (serial dilutions, compound dilutions, cell feeding, plate-to-plate transfers, etc.) utilized a Dual Pod Biomek FX. Luciferase assays were performed using the integrated and automated platform (Beckman Coulter). The SAMI EX software was used to design and execute the screening assay and enabled efficient and uniform assay execution across all the assay plates.

[2] = system: Neospora caninum parasites (NC-1 strain); assay: N. caninum (NC-1, lac-Z) growth inhibition in HFF, β-Gal assay; type: cell-based; settings: 72 h
Method: Neospora caninum parasites (NC-1 strain) expressing a lac-Z transgene (1) were serially passaged as tachyzoites in human foreskin fibroblasts cultured in DMEM supplemented with 10% fetal bovine serum (FBS), glutamine (10 mM) and gentamycin (10 μg/mL). Mature cultures were scraped, syringe passed using a 25 g needle to release parasites, filtered through a 3 micron polycarbonate filter to remove host cell debris and counted prior to each assay. All cultures were maintained in a 37° C. incubator with 5% CO2 and were verified mycoplasma free using the e-Myco plus Mycoplasma PCR detection kit (Boca Scientific).
Compounds were prepared as 10 mM stock in 100% DMSO. Pyrimethamine (positive control) and DMSO were included as controls in all plates and all replicates. The EC50 values were determined using a 10-point dose response curve using a 2-fold dilution series from 5.0 μM to 0.01 μM across the plate. Experiments were conducted in 96-well plates containing confluent HFF cells. Each assay plate was inoculated with 1×10^3 parasites (100 μL) containing 100 μL of 2× compound and incubated for 72 h prior to preparation for the j-Gal assay as described in Seeber, F. et al., Gene 169 (1996): 39-45, hereby incorporated by reference in its entirety and particularly in relation to the β-Gal assay protocol. Briefly, culture medium was replaced, wells rinsed with 200 μL of PBS followed by incubation with 50 μL of lysis buffer (100 mM HEPES, 1 mM MgSO4, 1% Triton X-100, 5 mM DTT) for 10 min at 50° C.
EC50 values determined from 10-point dose response curve (5 μM-0.01 μM) and presented as the average of three biological replicates. Linear regression and dose response inhibition (log ([compound]) vs normalized response-variable slope) were performed with Prism 8 for Mac (Graphpad Software, Inc.) and both the fits and data are shown in FIG. 1. Values represent the average of three biological replicates each with two internal replicates and are plotted as mean±S.E.M.

[3] = N. caninum NC-1 lac-Z, 10-point dose response 5 μM-0.01 μM, average of three biological replicates, read-out: EC50

COc1ccc(NC(=O)N2CCCCN3[C@H](CN4CCN(C)CC4)[C@H](c4ccc(C#Cc5ccccc5)cc4)[C@@H]3C2)cc1 [Compound 1, (8R,9S,10S)-N-(4-methoxyphenyl)-10-((4-methylpiperazin-1-yl)methyl)-9-(4-(phenylethynyl)phenyl)-1,6-diazabicyclo[6.2.0]decane-6-carboxamide]
EC50 [1]: 425 nM

COc1ccc(NC(=O)N2CCCCN3[C@H](COCCC(=O)O)[C@H](c4ccc(C#Cc5ccccc5)cc4)[C@@H]3C2)cc1 [Compound 2, 3-(((8R,9R,10S)-6-((4-methoxyphenyl)carbamoyl)-9-(4-(phenylethynyl)phenyl)-1,6-diazabicyclo[6.2.0]decan-10-yl)methoxy)propanoic acid]
EC50 [1]: 64.3 nM

O=C(NC1CCC1)N1CCCCN2[C@H](CO)[C@H](c3ccc(C#Cc4ccccc4)cc3)[C@@H]2C1 [Compound 3, (8R,9R,10S)-N-cyclobutyl-10-(hydroxymethyl)-9-(4-(phenylethynyl)phenyl)-1,6-diazabicyclo[6.2.0]decane-6-carboxamide]
EC50 [1]: 2580 nM

COc1ccc(NC(=O)N2CCCCN3[C@H](CN(C)S(C)(=O)=O)[C@H](c4ccc(C#Cc5ccccc5)cc4)[C@@H]3C2)cc1 [Compound 4, (8R,9R,10S)-N-(4-methoxyphenyl)-10-((N-methylmethylsulfonamido)methyl)-9-(4-(phenylethynyl)phenyl)-1,6-diazabicyclo[6.2.0]decane-6-carboxamide]
EC50 [1]: 34.8 nM

COc1ccc(NC(=O)N2CCCCN3[C@H](CN(C)CCF)[C@H](c4ccc(C#Cc5ccccc5)cc4)[C@@H]3C2)cc1 [Compound 5, (8R,9S,10S)-10-(((2-fluoroethyl)(methyl)amino)methyl)-N-(4-methoxyphenyl)-9-(4-(phenylethynyl)phenyl)-1,6-diazabicyclo[6.2.0]decane-6-carboxamide]
EC50 [1]: 89.5 nM

COc1ccc(NC(=O)N2CCCCN3[C@@H](C2)[C@@H](c2ccc(C#Cc4ccccc4)cc2)[C@@H]3CN(C)S(C)(=O)=O)cc1 [Compound 6, (8R,9R,10R)-N-(4-methoxyphenyl)-10-((N-methylmethylsulfonamido)methyl)-9-(4-(phenylethynyl)phenyl)-1,6-diazabicyclo[6.2.0]decane-6-carboxamide]
EC50 [1]: 40 nM | EC50 [2, 3]: 60 nM

COc1ccc(NC(=O)N2CCCCN3[C@H](CO)[C@H](c4ccc(C#CC5CC5)cc4)[C@@H]3C2)cc1 [Compound 7, (8R,9R,10S)-9-(4-(cyclopropylethynyl)phenyl)-10-(hydroxymethyl)-N-(4-methoxyphenyl)-1,6-diazabicyclo[6.2.0]decane-6-carboxamide]
EC50 [1]: 1610 nM

COc1ccc(NC(=O)N2C[C@H](O)[C@H](O)CN3[C@H](CN(C)C)[C@H](c4ccc(C#Cc5ccccc5)cc4)[C@@H]3C2)cc1 [Compound 8, (3R,4S,8R,9S,10S)-10-((dimethylamino)methyl)-3,4-dihydroxy-N-(4-methoxyphenyl)-9-(4-(phenylethynyl)phenyl)-1,6-diazabicyclo[6.2.0]decane-6-carboxamide]
EC50 [1]: 39.3 nM | EC50 [2, 3]: 30 nM

COC[C@@H]1[C@H](c2ccc(C#Cc3ccccc3)cc2)[C@@H]2CN(C(=O)Nc3ccc(OC)cc3)CCCCN12 [Compound 9, (8R,9R,10S)-10-(methoxymethyl)-N-(4-methoxyphenyl)-9-(4-(phenylethynyl)phenyl)-1,6-diazabicyclo[6.2.0]decane-6-carboxamide]
EC50 [1]: 50.4 nM

O=C(Nc1cccc(F)c1)N1CCCCN2[C@H](CO)[C@H](c3ccc(C#Cc4cccnc4)cc3)[C@@H]2C1 [Compound 10, (8R,9R,10S)-N-(3-fluorophenyl)-10-(hydroxymethyl)-9-(4-(pyridin-3-ylethynyl)phenyl)-1,6-diazabicyclo[6.2.0]decane-6-carboxamide]
EC50 [1]: 493 nM

COc1ccc(NC(=O)N2CCCCN3[C@H](CO)[C@H](c4ccc(C#Cc5ccccc5)cc4)[C@]3(CO)C2)cc1 [Compound 11, (8R,9S,10S)-8,10-bis(hydroxymethyl)-N-(4-methoxyphenyl)-9-(4-(phenylethynyl)phenyl)-1,6-diazabicyclo[6.2.0]decane-6-carboxamide]
EC50 [1]: 1690 nM

COc1ccc(NC(=O)N2CCCCN3[C@H](CO)[C@H](c4ccc(C#Cc5ccccc5C#N)cc4)[C@@H]3C2)cc1 [Compound 12, (8R,9R,10S)-9-(4-((2-cyanophenyl)ethynyl)phenyl)-10-(hydroxymethyl)-N-(4-methoxyphenyl)-1,6-diazabicyclo[6.2.0]decane-6-carboxamide]
EC50 [1]: 213 nM

COc1ccc(NC(=O)N2CCCCN3[C@@H](CO)[C@H](c4ccc(C#Cc5ccccn5)cc4)[C@@H]3C2)cc1 [Compound 13, (8R,9R,10R)-10-(hydroxymethyl)-N-(4-methoxyphenyl)-9-(4-(pyridin-2-ylethynyl)phenyl)-1,6-diazabicyclo[6.2.0]decane-6-carboxamide]
EC50 [1]: 646 nM

CN(C[C@@H]1[C@H](c2ccc(C#Cc3ccccc3)cc2)[C@@H]2CN(C(=O)Nc3ccc(OC4CC4)cc3)CCCCN12)S(C)(=O)=O [Compound 14, (8R,9R,10S)-N-(4-cyclopropoxyphenyl)-10-((N-methylmethylsulfonamido)methyl)-9-(4-(phenylethynyl)phenyl)-1,6-diazabicyclo[6.2.0]decane-6-carboxamide]
EC50 [1]: 18.5 nM | EC50 [2, 3]: 37 nM

COc1ccc(NC(=O)N2CCCCN3C[C@H](c4ccc(C#Cc5ccccc5)cc4)[C@@H]3C2)cc1 [Compound 16]
EC50 [1]: 77 nM | EC50 [2, 3]: 193 nM

COc1ccc(NC(=O)N2CCCCN3[C@H](CN4CCC4)[C@H](c4ccc(C#Cc5ccccc5)cc4)[C@@H]3C2)cc1 [Compound 17, (8R,9S,10S)-10-(azetidin-1-ylmethyl)-N-(4-methoxyphenyl)-9-(4-(phenylethynyl)phenyl)-1,6-diazabicyclo[6.2.0]decane-6-carboxamide]
EC50 [1]: 442 nM

COc1ccc(NC(=O)N2CCCCN3[C@H](CO)[C@H](c4ccc(C#Cc5ccccc5)cc4)[C@@H]3C2)cc1 [Compound 18, (8R,9R,10S)-10-(hydroxymethyl)-N-(4-methoxyphenyl)-9-(4-(phenylethynyl)phenyl)-1,6-diazabicyclo[6.2.0]decane-6-carboxamide]
EC50 [1]: 28.9 nM

OC[C@@H]1[C@H](c2ccc(C#Cc3ccccc3)cc2)[C@@H]2CN(c3nc4ccccc4s3)CCCCN12 [Compound 19, ((8R,9R,10S)-6-(benzo[d]thiazol-2-yl)-9-(4-(phenylethynyl)phenyl)-1,6-diazabicyclo[6.2.0]decan-10-yl)methanol]
EC50 [1]: 3940 nM

COc1ccc(NC(=O)N2CCCCCN3[C@H](CO)[C@H](c4ccc(C#Cc5ccccc5)cc4)[C@@H]3C2)cc1 [Compound 20, (9R,10R,11S)-11-(hydroxymethyl)-N-(4-methoxyphenyl)-10-(4-(phenylethynyl)phenyl)-1,7-diazabicyclo[7.2.0]undecane-7-carboxamide]
EC50 [1]: 169 nM | EC50 [2, 3]: 157 nM

COc1ccc(NC(=O)N2CCCN3[C@H](CO)[C@H](c4ccc(C#Cc5ccccc5)cc4)[C@@H]3C2)cc1 [Compound 21, (7R,8R,9S)-9-(hydroxymethyl)-N-(4-methoxyphenyl)-8-(4-(phenylethynyl)phenyl)-1,5-diazabicyclo[5.2.0]nonane-5-carboxamide]
EC50 [1]: 1750 nM

CCc1nc(N)nc(N)c1-c1ccc(Cl)cc1 [Pyrimethamine (Pyr), Pyrimethamine, reference compound]
EC50 [2]: 263 nM
